Experiments:
Swiss-Webster mice [1] = test: Locomotor stimulant and depressant effects in mice; settings: i.p.
Method: Male Swiss-Webster mice (HSD ND4, Harlan Sprague Dawley, Houston, Tex.) aged 2–3 months were used in these studies. Each dose group consisted of 8 mice. The mice were housed 2 to 4 per cage in 30.4×22.9×15.2 cm clear polycarbonate cages with food and water available ad libitum for at least one week prior to locomotor activity testing. The colony was maintained at 23±1° C., on a normal light-dark cycle beginning at 0700 hr. All testing took place during the light portion of the light-dark cycle.
Horizontal (forward movement) locomotor activity was measured using a standardized, optical activity monitoring system [Model KXYZCM (16), Omnitech Electronics, Columbus, Ohio]. Activity was monitored in forty 40.5×40.5×30.5 cm clear acrylic chambers that where housed in sets of two within larger sound-attenuating chambers. A panel of 16 infrared beams and corresponding photodetectors were spaced 2 cm apart along the sides and 2.4 cm above the floor of each activity chamber. A 7.5-W incandescent light above each chamber provided dim illumination via a rheostat set to 20% of full scale. Fans provided an 80-dB ambient noise level within the chamber.
Triprolidine HCl was obtained from Research Biochemicals International, (Natick, Mass.).
Locomotor stimulant effects. […] (+)-Amphetamine was used as a positive control. The total horizontal distance traversed (cm) was recorded at 10 minute intervals for a 2-hour session. Separate groups of 8 mice were assigned to each dose or saline group, and dose-effect testing continued for each compound until maximal stimulant or depressant effects could be estimated. A separate control group was tested along with each compound.
Using TableCurve 2D v2.03 (Jandel Scientific), the mean average total distance traversed (cm/10 min) for that period was fit to a 3-parameter logistic peak function of log10 dose (with the constant set to the mean of the saline group), and the maximum effect estimated from the resulting curve. The […] (dose producing ½ maximal stimulant activity) was estimated from a linear regression against log10 dose of the ascending portion of the dose-effect curve. The stimulant efficacy was the peak effect of the compound (cm/10 min) as estimated from the logistic peak function, minus the mean control distance traveled (cm/10 min), and was expressed for each stimulant compound as a ratio to the stimulant efficacy determined for (+)-amphetamine.
The mean average total distance traversed (cm/10 min) for that period were fit to a linear function of log10 dose of the descending portion of the dose-effect curve. […] Efficacy was the ratio of maximal depressant effect to maximum possible depression for each compound (mean average total distance of the control group minus the lowest mean total distance, expressed as a ratio to the control group total distance).
(§1) Statistical analysis. Time course data for each compound were considered in 2-way analyses of variance with dose as a between-group and time as a within-group factor. The dose-effect data were considered in 1-way analyses of variance, and planned individual comparisons were conduced between each dose and the saline control group. Interaction studies were considered in 2-way analyses of variance, with Pretreatment and Test dose as the factors.

Swiss-Webster mice [2] = test: H1 receptor antagonist (triprolidine) interaction study, locomotor activity in mice; settings: mice pretreated with triprolidine 20 min before the test compound
Method: H1 receptor antagonist interaction studies. […] The mice were immediately placed in the activity testing chamber for a 2-h session. Doses of the test compound were selected from the ascending or descending time of the dose-effect curve determined from the compound-alone studies. Eight mice were tested for each triprolidine/test compound combination.
as §1

Dog = test: Dosage which raised mean arterial pressure 10%, dog; format: in vivo
[3] = test system: New Zealand white rabbits; test: Intraocular pressure (IOP) after topical application to the rabbit eye; format: in vivo; settings: mean ± S.E.
Method: These diastereomers were administered topically as either 1% or 2% solutions in buffered saline. Pupillary diameter and IOP were measured in all animals over a six hour time period during the day to minimize diurnal variations in IOP and pupil diameter.
The experiments were performed on adult male New Zealand white rabbits weighing 3.0–6.0 kg. All rabbits were caged individually and maintained on a 12 hr/12 hr light/dark schedule with free access to food and water. All animal procedures were in conformity with the ARVO Resolution on the Use and Care of Animals in Research. All treated rabbits had served as controls by having received a saline treatment on a different day.
Only one eye received drug treatment. The contralateral eye served as a control. Saline (or PBS) and drug treated rabbits were treated and observed simultaneously. A single dose was given at time zero and IOP and pupil diameter measured at −1.0, −0.5, 0.5, 1, 3 and 5 hrs post-treatment.
IOP measurements were recorded with an Alcon Applanation Pneumotonograph (Surgical Products Division, Alcon Laboratories, Inc., Ft. Worth, Tex.) in rabbits placed in Lucite restraining cages. Initial topical application of a two drop 0.5% proparacaine HCl (Ophthetic®, Allergan Pharmaceuticals, Inc.) was performed on each rabbit.
Mean and Standard Error values were used to construct time-response and dose-response curves for the treated and contralateral eye of research rabbits. The data were analyzed statistically by an analysis of variance and a Bonferoni's test for significance. P<0.05 was the accepted level of significance.

Rat = test: Dosage which raised mean arterial pressure 10%, rat; format: in vivo

CNC[C@H](O)c1cccc(O)c1 [(−)-Phenylephrine, (−)-phenylephrine]
Depression Time: 30-min period following injection in which the maximal depression occurred (Swiss-Webster mice [1]): 0 to 30 min | Stimulation Time: 30-min period following injection in which the maximal stimulant effect occurred (Swiss-Webster mice [1]): 60 to 90 min | locomotor depressant effects, time course (result in words) (Swiss-Webster mice [1]): dose-dependent locomotor depression within 10 to 20 minutes following injection | Depression Potency: dose resulting in ½ the maximal depressant effect (ID50) (Swiss-Webster mice [1]; — denotes absence of significant effect): 2.3 mg/kg | effect of triprolidine pretreatment on stimulant or depressant effects (Swiss-Webster mice [2]): failed to show significant modification of stimulant or depressant effects | Dosage of Enantiomer which raised mean arterial pressure 10%, Dog (Dog): 10 µg/kg | IOP ([3]; 1% topical, drug treated eye (T), 0.5 hr): 24 ± 0.6 mmHg | IOP ([3]; 1% topical, drug treated eye (T), 1 hr): 24 ± 1.0 mmHg | IOP ([3]; 1% topical, drug treated eye (T), 3 hr): 23 ± 1.5 mmHg | IOP ([3]; 1% topical, drug treated eye (T), 5 hr): 21 ± 1.9 mmHg | IOP ([3]; 1% topical, drug treated eye (T), −0.5 hr (pre-treatment)): 16 ± 1.5 mmHg | IOP ([3]; 1% topical, drug treated eye (T), −1 hr (pre-treatment)): 20 ± 1.6 mmHg | IOP ([3]; 1% topical, untreated contralateral eye (U), 0.5 hr): 18 ± 1.6 mmHg | IOP ([3]; 1% topical, untreated contralateral eye (U), 1 hr): 19 ± 1.3 mmHg | IOP ([3]; 1% topical, untreated contralateral eye (U), 3 hr): 20 ± 1.9 mmHg | IOP ([3]; 1% topical, untreated contralateral eye (U), 5 hr): 19 ± 1.7 mmHg | IOP ([3]; 1% topical, untreated contralateral eye (U), −0.5 hr (pre-treatment)): 15 ± 2.1 mmHg | IOP ([3]; 1% topical, untreated contralateral eye (U), −1 hr (pre-treatment)): 16 ± 1.0 mmHg | IOP ([3]; 2% topical, drug treated eye (T), 0.5 hr): 12 ± 0.8 mmHg | IOP ([3]; 2% topical, drug treated eye (T), 1 hr): 14 ± 2.0 mmHg | IOP ([3]; 2% topical, drug treated eye (T), 3 hr): 16 ± 0.8 mmHg | IOP ([3]; 2% topical, drug treated eye (T), 5 hr): 14 ± 1.3 mmHg | IOP ([3]; 2% topical, drug treated eye (T), −0.5 hr (pre-treatment)): 15 ± 1.5 mmHg | IOP ([3]; 2% topical, drug treated eye (T), −1 hr (pre-treatment)): 18 ± 1.6 mmHg | IOP ([3]; 2% topical, untreated contralateral eye (U), 0.5 hr): 20 ± 2.0 mmHg | IOP ([3]; 2% topical, untreated contralateral eye (U), 1 hr): 20 ± 2.4 mmHg | IOP ([3]; 2% topical, untreated contralateral eye (U), 3 hr): 14 ± 1.7 mmHg | IOP ([3]; 2% topical, untreated contralateral eye (U), 5 hr): 14 ± 2.0 mmHg | IOP ([3]; 2% topical, untreated contralateral eye (U), −0.5 hr (pre-treatment)): 17 ± 1.9 mmHg | IOP ([3]; 2% topical, untreated contralateral eye (U), −1 hr (pre-treatment)): 17 ± 1.9 mmHg | Dosage of Enantiomer which raised mean arterial pressure 10%, Rat (Rat): 3 to 5 µg

Source: patent US7232837B2, “Stereoisomers with high affinity for adrenergic receptors” (McNeil-PPC, Inc., priority 1999, dated 2007)
